A value given as a limit tells only on which side of the number the result lay.

Assay [1] deals with Mitogen-activated protein kinase 9 (Homo sapiens, UniProt P45984). Particulars: at 10 µM.
Assay [2] concerns the target Serine/threonine-protein kinase Nek4 (Homo sapiens) (UniProt P51957). The assay can be described thus: Selectivity interaction (KinomeScan (DiscoverX)) EUB0000695a NEK4. The following applies: at 100 nM.
The target in assay [3] is T1, Serine/threonine-protein kinase 17A (Homo sapiens) (UniProt Q9UEE5).
T1 sequence (whole entry): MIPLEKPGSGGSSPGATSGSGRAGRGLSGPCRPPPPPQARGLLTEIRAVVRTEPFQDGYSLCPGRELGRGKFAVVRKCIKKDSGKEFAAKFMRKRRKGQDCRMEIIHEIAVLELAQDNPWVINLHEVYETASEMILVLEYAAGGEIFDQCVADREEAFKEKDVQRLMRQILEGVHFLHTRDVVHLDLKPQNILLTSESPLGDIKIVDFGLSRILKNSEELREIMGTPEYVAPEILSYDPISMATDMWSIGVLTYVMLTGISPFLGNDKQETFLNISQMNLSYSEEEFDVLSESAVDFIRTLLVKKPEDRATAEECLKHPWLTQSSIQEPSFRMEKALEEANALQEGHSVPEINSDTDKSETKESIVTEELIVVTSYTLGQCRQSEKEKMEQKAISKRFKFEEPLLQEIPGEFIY
The assay can be described thus: Selectivity interaction (KinomeScan (DiscoverX)) EUB0000666a STK17A. The following applies: at 10 µM.

For assay [4], the target named is T2, Histone-lysine N-methyltransferase NSD3 (Homo sapiens) (UniProt Q9BZ95).
T2 sequence (whole entry): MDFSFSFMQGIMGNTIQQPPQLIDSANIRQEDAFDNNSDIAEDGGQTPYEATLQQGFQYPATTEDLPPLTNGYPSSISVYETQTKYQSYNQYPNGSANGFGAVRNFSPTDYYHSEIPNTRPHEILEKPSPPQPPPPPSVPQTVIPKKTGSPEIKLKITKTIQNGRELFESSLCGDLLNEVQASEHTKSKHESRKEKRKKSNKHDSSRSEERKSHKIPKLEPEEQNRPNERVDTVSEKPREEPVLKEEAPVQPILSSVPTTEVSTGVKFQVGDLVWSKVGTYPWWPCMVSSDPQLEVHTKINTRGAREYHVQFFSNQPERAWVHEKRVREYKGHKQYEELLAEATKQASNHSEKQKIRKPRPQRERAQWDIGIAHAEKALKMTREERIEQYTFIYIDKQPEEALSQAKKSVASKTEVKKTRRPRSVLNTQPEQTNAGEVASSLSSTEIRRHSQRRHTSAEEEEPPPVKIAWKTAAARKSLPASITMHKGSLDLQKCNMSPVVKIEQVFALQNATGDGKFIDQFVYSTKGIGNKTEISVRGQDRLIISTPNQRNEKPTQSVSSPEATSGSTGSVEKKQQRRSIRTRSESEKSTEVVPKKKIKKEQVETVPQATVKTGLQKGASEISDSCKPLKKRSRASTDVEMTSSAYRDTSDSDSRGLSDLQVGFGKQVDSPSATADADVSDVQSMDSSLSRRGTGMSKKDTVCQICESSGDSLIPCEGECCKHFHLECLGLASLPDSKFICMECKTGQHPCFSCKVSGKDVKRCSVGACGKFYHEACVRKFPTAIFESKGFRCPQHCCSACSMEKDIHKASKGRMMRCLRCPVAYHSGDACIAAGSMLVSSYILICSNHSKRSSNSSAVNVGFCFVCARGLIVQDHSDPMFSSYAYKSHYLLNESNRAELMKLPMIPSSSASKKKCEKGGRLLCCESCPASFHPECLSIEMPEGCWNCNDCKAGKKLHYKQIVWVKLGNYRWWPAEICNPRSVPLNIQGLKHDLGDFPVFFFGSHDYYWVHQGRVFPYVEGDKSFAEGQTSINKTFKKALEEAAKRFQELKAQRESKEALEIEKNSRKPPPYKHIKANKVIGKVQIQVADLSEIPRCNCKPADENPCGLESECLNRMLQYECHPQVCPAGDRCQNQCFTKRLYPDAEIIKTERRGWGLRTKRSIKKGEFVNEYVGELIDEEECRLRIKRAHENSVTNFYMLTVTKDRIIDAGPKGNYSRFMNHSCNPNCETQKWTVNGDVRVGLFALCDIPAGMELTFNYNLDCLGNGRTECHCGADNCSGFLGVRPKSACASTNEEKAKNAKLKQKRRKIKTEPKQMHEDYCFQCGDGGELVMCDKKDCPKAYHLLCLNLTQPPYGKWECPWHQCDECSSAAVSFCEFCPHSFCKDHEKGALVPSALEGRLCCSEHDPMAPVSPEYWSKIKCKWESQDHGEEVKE
The following applies: at 10 µM.

Assay [5] concerns the target cAMP-dependent protein kinase catalytic subunit alpha (Homo sapiens, UniProt P17612). The assay can be described thus: Selectivity interaction (SelectScreen profiling (Invitrogen)) EUB0000607a PRKACA. Particulars: at 2 µM.
Assay [6] addresses T3, cGMP-dependent protein kinase 2 (Homo sapiens) (UniProt Q13237).
T3 sequence (whole entry): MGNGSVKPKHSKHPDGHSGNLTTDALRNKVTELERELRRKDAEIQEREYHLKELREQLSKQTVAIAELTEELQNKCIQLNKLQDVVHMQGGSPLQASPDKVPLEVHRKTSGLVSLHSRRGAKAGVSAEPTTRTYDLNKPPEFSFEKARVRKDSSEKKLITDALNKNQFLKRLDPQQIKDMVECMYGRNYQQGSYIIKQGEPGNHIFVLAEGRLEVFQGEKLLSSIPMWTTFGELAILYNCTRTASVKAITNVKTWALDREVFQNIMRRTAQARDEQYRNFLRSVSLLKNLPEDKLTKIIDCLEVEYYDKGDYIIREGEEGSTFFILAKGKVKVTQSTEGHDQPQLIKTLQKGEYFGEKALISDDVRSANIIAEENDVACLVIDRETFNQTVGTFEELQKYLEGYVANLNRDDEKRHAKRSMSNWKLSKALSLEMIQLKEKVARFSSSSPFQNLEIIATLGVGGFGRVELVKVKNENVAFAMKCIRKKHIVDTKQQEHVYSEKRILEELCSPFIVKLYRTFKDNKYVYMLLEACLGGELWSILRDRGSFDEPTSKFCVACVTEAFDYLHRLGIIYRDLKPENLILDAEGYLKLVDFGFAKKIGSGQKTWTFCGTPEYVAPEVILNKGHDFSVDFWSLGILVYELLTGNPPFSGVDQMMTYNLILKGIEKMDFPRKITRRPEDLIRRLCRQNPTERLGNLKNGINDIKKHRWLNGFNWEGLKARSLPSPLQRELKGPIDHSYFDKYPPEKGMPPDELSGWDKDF
The assay can be described thus: Selectivity interaction (KinomeScan (DiscoverX)) EUB0000595a PRKG2. The following applies: at 10 µM.

The target of assay [7] is Rho-associated protein kinase 1 (Homo sapiens) (UniProt Q13464). Kind of assay: Selectivity interaction (ActivX KiNativ screen (ex vivo kinase selectivity in human PBMCs)) EUB0001619a ROCK1. Format: cell-based. The following applies: PBMC, at 1 µM.
Sequence of Rho-associated protein kinase 1 (Homo sapiens) (Q13464 2-1354 limits assumed): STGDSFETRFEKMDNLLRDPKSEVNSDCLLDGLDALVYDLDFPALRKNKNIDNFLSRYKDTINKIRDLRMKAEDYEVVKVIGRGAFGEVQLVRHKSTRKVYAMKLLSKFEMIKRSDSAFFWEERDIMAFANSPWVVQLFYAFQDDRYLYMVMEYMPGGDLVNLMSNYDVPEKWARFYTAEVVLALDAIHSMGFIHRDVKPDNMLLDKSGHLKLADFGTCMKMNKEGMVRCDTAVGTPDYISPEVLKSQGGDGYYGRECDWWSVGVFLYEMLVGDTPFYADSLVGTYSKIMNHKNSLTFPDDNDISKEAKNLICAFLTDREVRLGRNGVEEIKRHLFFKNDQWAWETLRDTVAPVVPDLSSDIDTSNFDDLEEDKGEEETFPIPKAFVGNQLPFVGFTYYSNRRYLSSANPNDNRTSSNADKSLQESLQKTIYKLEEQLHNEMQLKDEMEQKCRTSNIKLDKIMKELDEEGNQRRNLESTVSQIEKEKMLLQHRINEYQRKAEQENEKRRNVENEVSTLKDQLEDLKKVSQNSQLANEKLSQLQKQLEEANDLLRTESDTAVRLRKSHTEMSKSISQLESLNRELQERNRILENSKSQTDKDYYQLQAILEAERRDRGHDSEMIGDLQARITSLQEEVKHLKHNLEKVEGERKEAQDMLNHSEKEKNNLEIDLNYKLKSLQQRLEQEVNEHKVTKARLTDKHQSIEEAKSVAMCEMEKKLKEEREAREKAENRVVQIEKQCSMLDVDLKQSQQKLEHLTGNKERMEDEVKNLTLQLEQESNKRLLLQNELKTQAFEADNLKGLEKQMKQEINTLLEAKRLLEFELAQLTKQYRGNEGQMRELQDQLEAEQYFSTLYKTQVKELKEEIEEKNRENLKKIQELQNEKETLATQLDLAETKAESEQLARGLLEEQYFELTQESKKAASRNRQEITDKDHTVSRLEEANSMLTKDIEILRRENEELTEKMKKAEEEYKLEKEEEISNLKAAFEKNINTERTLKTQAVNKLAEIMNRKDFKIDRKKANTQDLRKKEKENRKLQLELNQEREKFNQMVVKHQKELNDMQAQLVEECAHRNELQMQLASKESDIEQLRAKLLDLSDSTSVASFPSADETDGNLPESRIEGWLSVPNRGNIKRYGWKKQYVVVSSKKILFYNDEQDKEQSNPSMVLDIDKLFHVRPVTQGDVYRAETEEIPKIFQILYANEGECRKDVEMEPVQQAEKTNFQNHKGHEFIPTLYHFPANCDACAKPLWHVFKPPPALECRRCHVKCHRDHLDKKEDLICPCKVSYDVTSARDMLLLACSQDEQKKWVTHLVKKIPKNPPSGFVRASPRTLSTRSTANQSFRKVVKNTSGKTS

Sequence of Mitogen-activated protein kinase 9 (P45984 whole entry, looked up): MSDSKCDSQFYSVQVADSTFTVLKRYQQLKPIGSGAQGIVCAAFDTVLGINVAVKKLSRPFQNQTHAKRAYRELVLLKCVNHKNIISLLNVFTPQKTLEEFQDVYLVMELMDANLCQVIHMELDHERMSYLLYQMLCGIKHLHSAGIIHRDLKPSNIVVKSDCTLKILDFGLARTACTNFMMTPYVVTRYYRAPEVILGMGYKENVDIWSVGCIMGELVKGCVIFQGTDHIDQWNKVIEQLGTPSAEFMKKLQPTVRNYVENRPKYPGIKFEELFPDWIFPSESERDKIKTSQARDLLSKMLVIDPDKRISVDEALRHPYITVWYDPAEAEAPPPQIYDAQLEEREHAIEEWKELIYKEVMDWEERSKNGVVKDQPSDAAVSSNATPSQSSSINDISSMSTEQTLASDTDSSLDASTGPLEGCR
Sequence of Serine/threonine-protein kinase Nek4 (Homo sapiens) (P51957 whole entry, looked up): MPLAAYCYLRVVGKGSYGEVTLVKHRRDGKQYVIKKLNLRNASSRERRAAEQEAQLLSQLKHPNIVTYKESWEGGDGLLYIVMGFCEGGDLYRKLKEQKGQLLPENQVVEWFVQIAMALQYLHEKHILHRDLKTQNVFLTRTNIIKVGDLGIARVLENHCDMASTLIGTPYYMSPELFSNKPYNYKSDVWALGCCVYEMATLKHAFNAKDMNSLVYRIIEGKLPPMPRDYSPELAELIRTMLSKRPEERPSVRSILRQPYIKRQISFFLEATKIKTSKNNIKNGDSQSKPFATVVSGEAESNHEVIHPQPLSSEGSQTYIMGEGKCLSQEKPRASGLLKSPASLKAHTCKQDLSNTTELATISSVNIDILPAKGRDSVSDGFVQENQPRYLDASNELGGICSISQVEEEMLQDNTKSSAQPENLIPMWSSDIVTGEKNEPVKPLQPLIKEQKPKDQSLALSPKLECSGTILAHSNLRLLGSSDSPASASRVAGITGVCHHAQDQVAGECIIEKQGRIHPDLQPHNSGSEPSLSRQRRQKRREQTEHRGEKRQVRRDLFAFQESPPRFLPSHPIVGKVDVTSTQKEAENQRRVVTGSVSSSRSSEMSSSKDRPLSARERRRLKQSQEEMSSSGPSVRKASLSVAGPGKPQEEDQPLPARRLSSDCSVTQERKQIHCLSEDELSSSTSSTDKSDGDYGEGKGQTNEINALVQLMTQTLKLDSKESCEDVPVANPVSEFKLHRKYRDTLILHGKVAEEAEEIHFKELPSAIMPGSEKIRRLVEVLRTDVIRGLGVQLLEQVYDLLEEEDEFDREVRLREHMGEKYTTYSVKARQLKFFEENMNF

For `Cc1cc([C@@H](C)Nc2ccccc2C(=O)O)c2nc(N3CCOCC3)cc(=O)n2c1` [AZD-6482], the % of control in assay [1] was determined as 66%.
For the molecule `Cc1cc(F)c(C(=O)Nc2cccc(-c3nncn3C(C)C)n2)cc1-n1cnc(C2CC2)c1`, the % of control in assay [2] came out at 100%.
Consider `O=C(NOC[C@H](O)CO)c1ccc(F)c(F)c1Nc1ccc(I)cc1F`, for which the % of control in assay [3] came out at 100%.
In assay [4], `CNCCN1CCC(c2cc(CN(C)C(=O)c3cccc(Oc4ccccc4)c3)ccn2)CC1` yielded a % activity greater than 90%.
In the case of `CNC(=O)Nc1ccc(-c2nc(N3CC4CCC(C3)O4)c3cnn(C4CCC5(CC4)OCCO5)c3n2)cc1`, the % of inhibition in assay [5] was -3%.
For the molecule `COCC(=O)NC/C=C/c1ccc2ncnc(Nc3ccc(Oc4ccc(C)nc4)c(C)c3)c2c1` [CP-724714], the % of control in assay [6] stood at 100%.
Turning to `N#Cc1cccc(-c2c[nH]c3ncnc(N4CCOCC4)c23)c1`, in assay [7], the % of inhibition stood at 2%.

The values are drawn from ChEMBL document CHEMBL5465560, “Selectivity Literature for EUbOPEN Chemogenomic Library” (2024).
